{"source": "ChEMBL document CHEMBL1158397", "about": "“Polycyclic cage structures as carrier molecules for neuroprotective non-steroidal anti-inflammatory drugs” (Eur J Med Chem, 2009)", "key": {"[1]": {"assay": "Drug level in C57BL/6 mouse blood at 260.935 mg/kg, ip measured after 1 hr by LC-MS/MS analysis", "format": "ADME, organism-based", "set-up": "dose 260.935 mg/kg, route intraperitoneal", "conditions": "260.94 mg/kg, read-out: Drug uptake"}, "[2]": {"assay": "Drug level in C57BL/6 mouse brain at 260.935 mg/kg, ip measured after 1 hr by LC-MS/MS analysis", "format": "ADME, organism-based", "set-up": "dose 260.935 mg/kg, route intraperitoneal", "conditions": "260.94 mg/kg, read-out: Drug uptake"}, "[3]": {"assay": "Ratio of drug level in brain to blood in C57BL/6 mouse at 260.935 mg/kg, ip measured after 1 hr by LC-MS/MS analysis", "format": "ADME, organism-based", "set-up": "dose 260.935 mg/kg, route intraperitoneal", "conditions": "260.94 mg/kg"}, "[4]": {"system": "Brain", "assay": "Antioxidant activity in Sprague-Dawley rat brain homogenate assessed as attenuation of toxin-induced lipid peroxidation at 1 mM by modified TBA assay", "format": "functional, tissue-based"}, "[5]": {"system": "Brain", "assay": "Drug level in C57BL/6 mouse brain assessed as acetylsalicylic acid at 260.935 mg/kg, ip measured after 1 hr by LC-MS/MS analysis", "format": "ADME, organism-based", "set-up": "dose 260.935 mg/kg, route intraperitoneal", "conditions": "in vivo, 260.94 mg/kg"}, "[6]": {"system": "Blood", "assay": "Drug level in C57BL/6 mouse blood assessed as acetylsalicylic acid at 260.935 mg/kg, ip measured after 1 hr by LC-MS/MS analysis", "format": "ADME, organism-based", "set-up": "dose 260.935 mg/kg, route intraperitoneal", "conditions": "in vivo, 260.94 mg/kg"}, "[7]": {"assay": "Ratio of drug level in brain to blood assessed as acetylsalicylic acid in C57BL/6 mouse at 260.935 mg/kg, ip measured after 1 hr by LC-MS/MS analysis", "format": "ADME, organism-based", "set-up": "dose 260.935 mg/kg, route intraperitoneal", "conditions": "260.94 mg/kg"}, "[8]": {"system": "Brain", "assay": "Drug level in C57BL/6 mouse brain assessed as ibuprofen at 305.08 mg/kg, ip measured after 1 hr by LC-MS/MS analysis", "format": "ADME, organism-based", "set-up": "dose 305.08 mg/kg, route intraperitoneal", "conditions": "in vivo"}, "[9]": {"system": "Blood", "assay": "Drug level in C57BL/6 mouse blood assessed as ibuprofen at 305.08 mg/kg, ip measured after 1 hr by LC-MS/MS analysis", "format": "ADME, organism-based", "set-up": "dose 305.08 mg/kg, route intraperitoneal", "conditions": "in vivo"}, "[10]": {"assay": "Ratio of drug level in brain to blood assessed as ibuprofen in C57BL/6 mouse at 305.08 mg/kg, ip measured after 1 hr by LC-MS/MS analysis", "format": "ADME, organism-based", "set-up": "dose 305.08 mg/kg, route intraperitoneal"}, "[11]": {"system": "Blood", "assay": "Drug level in C57BL/6 mouse blood assessed as ibuprofen at 246.883 mg/kg, ip measured after 1 hr by LC-MS/MS analysis", "format": "ADME, organism-based", "set-up": "dose 246.883 mg/kg, route intraperitoneal", "conditions": "in vivo, 246.88 mg/kg"}, "[12]": {"system": "Brain", "assay": "Drug level in C57BL/6 mouse brain assessed as ibuprofen at 246.883 mg/kg, ip measured after 1 hr by LC-MS/MS analysis", "format": "ADME, organism-based", "set-up": "dose 246.883 mg/kg, route intraperitoneal", "conditions": "in vivo, 246.88 mg/kg"}, "[13]": {"assay": "Ratio of drug level in brain to blood assessed as ibuprofen in C57BL/6 mouse at 246.883 mg/kg, ip measured after 1 hr by LC-MS/MS analysis", "format": "ADME, organism-based", "set-up": "dose 246.883 mg/kg, route intraperitoneal", "conditions": "246.88 mg/kg"}, "[14]": {"system": "Brain", "assay": "Drug level in C57BL/6 mouse brain assessed as salicylic acid at 150 mg/kg, ip measured after 1 hr by LC-MS/MS analysis", "format": "ADME, organism-based", "set-up": "dose 150 mg/kg, route intraperitoneal", "conditions": "in vivo"}, "[15]": {"system": "Blood", "assay": "Drug level in C57BL/6 mouse blood assessed as total salicylate at 150 mg/kg, ip measured after 1 hr by LC-MS/MS analysis", "format": "ADME, organism-based", "set-up": "dose 150 mg/kg, route intraperitoneal", "conditions": "in vivo"}, "[16]": {"assay": "Drug level in C57BL/6 mouse brain at 150 mg/kg, ip measured after 1 hr by LC-MS/MS analysis", "format": "ADME, organism-based", "set-up": "dose 150 mg/kg, route intraperitoneal", "conditions": "read-out: Drug uptake"}, "[17]": {"assay": "Ratio of drug level in brain to blood assessed as salicylic acid in C57BL/6 mouse at 150 mg/kg, ip measured after 1 hr by LC-MS/MS analysis", "format": "ADME, organism-based", "set-up": "dose 150 mg/kg, route intraperitoneal"}, "[18]": {"assay": "Drug level in C57BL/6 mouse blood at 150 mg/kg, ip measured after 1 hr by LC-MS/MS analysis", "format": "ADME, organism-based", "set-up": "dose 150 mg/kg, route intraperitoneal", "conditions": "read-out: Drug uptake"}, "[19]": {"system": "Brain", "assay": "Drug level in C57BL/6 mouse brain assessed as total salicylate at 150 mg/kg, ip measured after 1 hr by LC-MS/MS analysis", "format": "ADME, organism-based", "set-up": "dose 150 mg/kg, route intraperitoneal", "conditions": "in vivo"}, "[20]": {"system": "Blood", "assay": "Drug level in C57BL/6 mouse blood assessed as salicylic acid at 150 mg/kg, ip measured after 1 hr by LC-MS/MS analysis", "format": "ADME, organism-based", "set-up": "dose 150 mg/kg, route intraperitoneal", "conditions": "in vivo"}, "[21]": {"assay": "Ratio of drug level in brain to blood assessed as total salicylate in C57BL/6 mouse at 150 mg/kg, ip measured after 1 hr by LC-MS/MS analysis", "format": "ADME, organism-based", "set-up": "dose 150 mg/kg, route intraperitoneal"}, "[22]": {"assay": "Ratio of drug level in brain to blood in C57BL/6 mouse at 150 mg/kg, ip measured after 1 hr by LC-MS/MS analysis", "format": "ADME, organism-based", "set-up": "dose 150 mg/kg, route intraperitoneal"}, "[23]": {"system": "Blood", "assay": "Drug level in C57BL/6 mouse blood assessed as acetylsalicylic acid at 327.58 mg/kg, ip measured after 1 hr by LC-MS/MS analysis", "format": "ADME, organism-based", "set-up": "dose 327.58 mg/kg, route intraperitoneal", "conditions": "in vivo"}, "[24]": {"assay": "Ratio of drug level in brain to blood assessed as acetylsalicylic acid in C57BL/6 mouse at 327.58 mg/kg, ip measured after 1 hr by LC-MS/MS analysis", "format": "ADME, organism-based", "set-up": "dose 327.58 mg/kg, route intraperitoneal"}, "[25]": {"system": "Brain", "assay": "Drug level in C57BL/6 mouse brain assessed as acetylsalicylic acid at 327.58 mg/kg, ip measured after 1 hr by LC-MS/MS analysis", "format": "ADME, organism-based", "set-up": "dose 327.58 mg/kg, route intraperitoneal", "conditions": "in vivo"}}, "note": "Activity calls are given as the source filed them. No cut-off for these calls is given here."}
{"smiles": "CC(C)Cc1ccc(C(C)C(=O)O)cc1", "note": "(stereo not drawn) [IBUPROFEN]", "values": [{"measurement": "concentration at 1 h", "setting": "[1]", "result": 61.4, "unit": "ng/mL"}, {"measurement": "concentration at 1 h", "setting": "[2]", "result": 52.5, "unit": "ng/mL"}, {"measurement": "Kp at 1 h", "setting": "[3]", "result": 0.9}, {"measurement": "Activity", "setting": "[4]", "result": "Active"}]}
{"smiles": "CC(=O)Oc1ccccc1C(=O)NC12CC3CC(CC(C3)C1)C2", "values": [{"measurement": "Drug uptake", "setting": "[5]", "result": 6.81, "unit": "ng/mL"}, {"measurement": "Drug uptake", "setting": "[6]", "result": 13.84, "unit": "ng/mL"}, {"measurement": "concentration at 1 h", "setting": "[1]", "result": 17.4, "unit": "ng/mL"}, {"measurement": "concentration at 1 h", "setting": "[2]", "result": 8.58, "unit": "ng/mL"}, {"measurement": "Ratio", "setting": "[7]", "result": 0.49}, {"measurement": "Kp at 1 h", "setting": "[3]", "result": 0.49}, {"measurement": "Activity", "setting": "[4]", "result": "Active"}]}
{"smiles": "CC(C)Cc1ccc(C(C)C(=O)OC23C4C5CC6C7C5C2C7C2(OCCCN23)C64)cc1", "note": "(stereo not drawn)", "values": [{"measurement": "Drug uptake", "setting": "[8]", "result": 55.8, "unit": "ng/mL"}, {"measurement": "Drug uptake", "setting": "[9]", "result": 40.28, "unit": "ng/mL"}, {"measurement": "Activity", "setting": "[4]", "result": "Active"}, {"measurement": "Ratio", "setting": "[10]", "result": 1.39}]}
{"smiles": "CC(C)Cc1ccc(C(C)C(=O)NC23CC4CC(CC(C4)C2)C3)cc1", "note": "(stereo not drawn)", "values": [{"measurement": "Drug uptake", "setting": "[11]", "result": 30.45, "unit": "ng/mL"}, {"measurement": "Drug uptake", "setting": "[12]", "result": 11.83, "unit": "ng/mL"}, {"measurement": "Ratio", "setting": "[13]", "result": 0.39}, {"measurement": "Activity", "setting": "[4]", "result": "Active"}]}
{"smiles": "CC(=O)Oc1ccccc1C(=O)O", "note": "[ASPIRIN]", "values": [{"measurement": "Drug uptake", "setting": "[14]", "result": 7.37, "unit": "ng/mL"}, {"measurement": "Drug uptake", "setting": "[15]", "result": 41.45, "unit": "ng/mL"}, {"measurement": "concentration at 1 h", "setting": "[16]", "result": 22.5, "unit": "ng/mL"}, {"measurement": "Ratio", "setting": "[17]", "result": 1.06}, {"measurement": "concentration at 1 h", "setting": "[18]", "result": 45.5, "unit": "ng/mL"}, {"measurement": "Drug uptake", "setting": "[19]", "result": 24.6, "unit": "ng/mL"}, {"measurement": "Drug uptake", "setting": "[20]", "result": 6.95, "unit": "ng/mL"}, {"measurement": "Ratio", "setting": "[21]", "result": 0.59}, {"measurement": "Activity", "setting": "[4]", "result": "Active"}, {"measurement": "Kp at 1 h", "setting": "[22]", "result": 0.49}]}
{"smiles": "CC(=O)Oc1ccccc1C(=O)OC12C3C4CC5C6C4C1C6C1(OCCCN12)C53", "note": "(stereo not drawn)", "values": [{"measurement": "Drug uptake", "setting": "[23]", "result": 44.11, "unit": "ng/mL"}, {"measurement": "Ratio", "setting": "[24]", "result": 1.34}, {"measurement": "Activity", "setting": "[4]", "result": "Active"}, {"measurement": "Drug uptake", "setting": "[25]", "result": 59.03, "unit": "ng/mL"}]}
